Results taken from the supplement of paper PMC10331698.
± gives the standard deviation of the averaged measurements.

Columns and labels:
Assay in all cases: level (log10 ratio to DMSO vehicle control); higher = higher biomarker level / cell amount than vehicle control
[1] = compound: OCC(F)(F)C(F)(F)C(F)(F)C(F)F [1H,1H,5H-Perfluoropentanol] (in DMSO)
Procedure: (§1)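 BioMAP Diversity Plus panel of 12 human primary cell co-culture systems (3C, 4H, LPS, SAg, BT, BF4T, BE3C, CASM3C, HDF3CGF, KF3CT, MyoF, Mphg). Compounds were added 1 h before stimulation and left for 24 h (MyoF 48 h; BT 72 h for soluble read-outs or 6 d for IgG). Biomarkers were read by ELISA, cytotoxicity by SRB, PBMC viability and proliferation by Alamar Blue. Each well value was divided by the mean of 8 DMSO control wells on the same plate and log10 transformed; duplicate blinded samples were tested at 4 concentrations.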

[2] = compound: O=S(=O)(O)CCC(F)(F)C(F)(F)C(F)(F)C(F)(F)C(F)(F)C(F)(F)C(F)(F)C(F)(F)F [8:2 Fluorotelomer sulfonic acid] (in DMSO)
Procedure: as §1

[3] = compound: O=S(=O)(O)C(F)(F)C(F)(F)OC(F)(F)C(F)(F)F [Perfluoro(2-ethoxyethane)sulfonic acid] (in DMSO)
Procedure: as §1

[4] = compound: CO[Si](C)(CCC(F)(F)C(F)(F)C(F)(F)C(F)(F)C(F)(F)C(F)(F)F)OC [Dimethoxymethyl((perfluorohexyl)ethyl)silane] (in DMSO)
Procedure: as §1

[5] = compound: CN(C(=O)C(F)(F)C(F)(F)C(F)(F)F)[Si](C)(C)C [N-Methyl-N-trimethylsilylheptafluorobutyramide] (in DMSO)
Procedure: as §1

[6] = compound: O=C(O)C(F)(F)C(F)(F)C(F)(F)OC(F)(F)F [Perfluoro(4-methoxybutanoic) acid] (in DMSO)
Procedure: as §1

[7] = compound: C=C(C)C(=O)OCCC(F)(F)C(F)(F)C(F)(F)C(F)(F)C(F)(F)C(F)(F)C(F)(F)C(F)(F)F [8:2 Fluorotelomer methacrylate] (in DMSO)
Procedure: as §1

Row | Test System | level (log10) ([1]; 6700 nM) | level (log10) ([1]; 20000 nM) | level (log10) ([1]; 60000 nM) | level (log10) ([2]; 6700 nM) | level (log10) ([2]; 20000 nM) | level (log10) ([2]; 60000 nM) | level (log10) ([3]; 6700 nM) | level (log10) ([3]; 20000 nM) | level (log10) ([3]; 60000 nM) | level (log10) ([4]; 6700 nM) | level (log10) ([4]; 20000 nM) | level (log10) ([5]; 6700 nM) | level (log10) ([5]; 20000 nM) | level (log10) ([5]; 60000 nM) | level (log10) ([6]; 6700 nM) | level (log10) ([6]; 20000 nM) | level (log10) ([6]; 60000 nM) | level (log10) ([7]; 6700 nM) | level (log10) ([7]; 20000 nM)
1 | BE3C:CXCL8/IL-8 | -0.0065 ± 0.077 | 0.0185 ± 0.12 | 0.0875 ± 0.12 | -0.0045 ± 0.022 | -0.06 ± 0.0014 | -0.134 ± 0.005 | 0.0135 ± 0.016 | 0.008 ± 0.038 | 0.04 ± 0.0028 | -0.006 ± 0.0085 | 0.038 ± 0.038 | 0.019 ± 0.054 | 0.0175 ± 0.061 | 0.055 ± 0.11 | 0.0325 ± 0.028 | 0.0325 ± 0.016 | 0.0655 ± 0.042 | -0.002 ± 0.014 | -0.008 ± 0.0028
2 | BE3C:CXCL9/MIG | -0.0075 ± 0.012 | 0.0135 ± 0.0092 | 0.013 ± 0.018 | -0.002 ± 0.0085 | -0.015 ± 0.0028 | -0.03 ± 0.011 | 0.002 ± 0.0042 | -0.0145 ± 0.012 | -0.0055 ± 0.0035 | 0.002 ± 0.0042 | 0.001 ± 0.0071 | 0.0065 ± 0.018 | 0.0005 ± 0.00071 | 0.004 ± 0.027 | 0.0005 ± 0.013 | -0.006 ± 0.016 | -0.0005 ± 0.00071 | -0.01 ± 0.014 | -0.0095 ± 0.022
3 | BE3C:CXCL10/IP-10 | -0.0015 ± 0.016 | 0.005 ± 0.017 | 0.0165 ± 0.042 | -0.0205 ± 0.012 | -0.122 ± 0.019 | -0.237 ± 0.02 | -0.008 ± 0.02 | -0.024 ± 0.033 | -0.01 ± 0.0071 | -0.0025 ± 0.0078 | -0.0065 ± 0.0021 | -0.006 ± 0.0028 | 0.005 ± 0.0014 | 0.007 ± 0.011 | -0.0045 ± 0.0078 | -0.001 ± 0.0085 | 0.0045 ± 0.0035 | -0.0005 ± 0.018 | -0.0105 ± 0.028
4 | BE3C:CXCL11/I-TAC | 0.003 ± 0.017 | 0.0165 ± 0.028 | 0.0315 ± 0.046 | 0.0385 ± 0.0021 | 0.016 ± 0.0071 | -0.0915 ± 0.015 | 0.032 ± 0.0057 | 0.076 ± 0.0042 | 0.073 ± 0.0042 | -0.0055 ± 0.019 | -0.0125 ± 0.0035 | -0.01 ± 0.0071 | 0.003 ± 0.014 | 0.012 ± 0.031 | 0.011 ± 0.018 | 0.008 ± 0.0085 | 0.0135 ± 0.0092 | 0.0215 ± 0.053 | 0.025 ± 0.078
5 | BE3C:EGFR | -0.008 ± 0.0099 | 0.0105 ± 0.011 | 0.032 ± 0.065 | 0.002 ± 0.0028 | -0.014 ± 0.018 | 0.004 ± 0.0099 | 0 ± 0.0014 | -0.019 ± 0.017 | -0.004 | 0.001 ± 0.011 | -0.01 ± 0.017 | -0.0065 ± 0.00071 | -0.0165 ± 0.013 | -0.01 ± 0.028 | 0.016 ± 0.0071 | 0.0035 ± 0.015 | 0.009 ± 0.016 | -0.007 ± 0.02 | -0.01 ± 0.031
6 | BE3C:HLA-DR | -0.017 ± 0.011 | -0.0095 ± 0.016 | 0.019 ± 0.023 | -0.0175 ± 0.037 | -0.111 ± 0.005 | -0.255 ± 0.0014 | -0.0085 ± 0.033 | -0.012 ± 0.014 | -0.0335 ± 0.0092 | -0.0045 ± 0.0021 | -0.0235 ± 0.012 | -0.009 ± 0.0014 | -0.0105 ± 0.0021 | 0.009 ± 0.033 | -0.0005 ± 0.019 | 0.007 ± 0.0071 | 0.021 ± 0.021 | -0.004 ± 0.021 | 0.0085 ± 0.033
7 | BE3C:IL-1alpha | -0.0275 ± 0.0064 | -0.0155 ± 0.018 | 0.0035 ± 0.023 | 0.016 ± 0.027 | -0.0055 ± 0.0064 | -0.043 ± 0.037 | 0.0015 ± 0.0021 | 0.0045 ± 0.0035 | 0.0085 ± 0.005 | 0.0025 ± 0.018 | 0.021 ± 0.0071 | 0.0045 ± 0.005 | -0.0075 ± 0.019 | 0.032 ± 0.014 | -0.0045 ± 0.037 | 0.014 ± 0.0042 | 0.0245 ± 0.0021 | -0.018 ± 0.02 | -0.0005 ± 0.0078
